Experimental findings from US20060046966A1, “Antipicornaviral compounds and compositions, their pharmaceutical uses, and materials for their synthesis” (Agouron Pharmaceuticals, Inc., priority 1998, published 2006) are described below.

In data set [1] the target is T1, rhinovirus 3C protease from HRV serotype-14 (Human rhinovirus 14, UniProt P03303).
T1 construct: Recombinant rhinovirus 3C proteases; made in house
The data set is described as follows: Inhibition of rhinovirus 3C protease (FRET assay), serotype 14. The data set is classed as biochemical. As to conditions: HRV serotype-14 3C protease, progress curves in enzyme start experiments; for kinact/KI: read-out: Protease Inhibition kobs/[I]. On the procedure:
Stock solutions (50 mM, in DMSO) of various compounds were prepared; dilutions were in the same solvent. Recombinant rhinovirus 3C proteases (see Birch et al., “Purification of recombinant human rhinovirus 14 3C protease expressed in Escherichia coli,” Protein Expr. Pur. 1995, 6(5), 609-618) from serotypes 14, 16, and 2 were prepared by the following standard chromatographic procedures: (1) ion exchange using Q Sepharose Fast Flow from Pharmacia; (2) affinity chromatography using Affi-Gel Blue from Biorad; and (3) sizing using Sephadex G-100 from Pharmacia. Each assay sample contained 2% DMSO, 50 mM tris pH 7.6, 1 mM EDTA, a test compound at the indicated concentration, approximately 1 μM substrate, and 50-100 nM protease. The kobs/I values were obtained from reactions initiated by addition of enzyme rather than substrate. RVP activity was measured in the fluorescence resonance energy transfer assay. The substrate was (N-terminal) DABCYL-(Gly-Arg-Ala-Val-Phe-Gln-Gly-Pro-Val-Gly)-EDANS. In the uncleaved peptide, the EDANS fluorescence was quenched by the proximal DABCYL moiety. When the peptide was cleaved, the quenching was relieved, and activity was measured as an increase in fluorescence signal. In Table 1, all data are for rhinovirus 3C protease from HRV serotype-14 (produced from the infectious cDNA clone constructed by Dr. Robert Rueckert, Institute for Molecular Virology, University of Wisconsin, Madison, Wis.). […] The data in the column designated kobs/[I] were measured from progress curves in enzyme start experiments.

Data set [2] has as its system HRV-14. The data set is described as follows: Antirhinoviral H1-HeLa cell culture assay, HRV-14. The data set is classed as cell-based, human rhinovirus. As to conditions: HRV serotype-14, H1-HeLa cells. On the procedure: In this cell protection assay, the ability of compounds to protect cells against HRV infection was measured by the XTT dye reduction method, which is described in Weislow et al., J. Natl. Cancer Inst. 1989, vol. 81, 577-586.
(§1) H1-HeLa cells were infected with HRV-14 at a multiplicity of infection (m.o.i.) of 0.13 (virus particles/cell) or mock-infected with medium only. Infected or mock-infected cells were resuspended at 8×10^5 cells per mL, and incubated with appropriate concentrations of the compounds to be tested. Two days later, XTT/PMS was added to test plates and the amount of formazan produced was quantified spectrophotometrically at 450/650 nm. The EC50 value was calculated as the concentration of compound that increased the percentage of formazan production in compound-treated, virus-infected cells to 50% of that produced by compound-free, mock-infected cells. The 50% cytotoxic dose (CC50) was calculated as the concentration of compound that decreased the percentage of formazan produced in compound-treated, mock-infected cells to 50% of that produced by compound-free, mock-infected cells. The therapeutic index (TI) was calculated by dividing the CC50 value by the EC50 value.
(§2) All strains of human rhinovirus (HRV) for use in this assay were purchased from American Type Culture Collection (ATCC), except for HRV serotype-14 (produced from the infectious cDNA clone constructed by Dr. Robert Rueckert, Institute for Molecular Virology, University of Wisconsin, Madison, Wis.). HRV stocks were propagated and viral assays were performed in H1-HeLa cells (ATCC). Cells were grown in minimal essential medium with 10% fetal bovine serum, available from Life Technologies (Gaithersburg, Md.).
The compounds were tested against control compounds WIN 51711, WIN 52084, and WIN 54954 (obtained from Sterling-Winthrop Pharmaceuticals), Pirodavir (obtained from Janssen Pharmaceuticals), and Pleconaril (prepared according to the method described in Diana et al., J. Med. Chem 1995, vol. 38, 1355). Antiviral data obtained for the test compounds are shown in Tables 1 and 3, where all data are for HRV serotype-14 unless otherwise noted in parentheses.

Data set [3] is described as follows: Cytotoxicity in mock-infected H1-HeLa cells (antirhinoviral assay, XTT). As to conditions: human, 50% cytotoxic dose, two days. The data set is classed as cell-based. As for the experimental part: as §1, §2
(In general: Tetrazolium assays rely on reduction of a dye to a coloured formazan, in cell work by metabolically active cells.)

Where [4] appears, read: Rhinovirus B, HRV14, H1-HeLa, Table 1, XTT dye reduction, read-out: Cell Protection EC50.
Setting [5] is: Rhinovirus B, HRV14, H1-HeLa, Table 3, XTT, read-out: EC50.

Read-outs that look alike come from different tables or passages of the source.

T1 sequence (P03303 1538-1719): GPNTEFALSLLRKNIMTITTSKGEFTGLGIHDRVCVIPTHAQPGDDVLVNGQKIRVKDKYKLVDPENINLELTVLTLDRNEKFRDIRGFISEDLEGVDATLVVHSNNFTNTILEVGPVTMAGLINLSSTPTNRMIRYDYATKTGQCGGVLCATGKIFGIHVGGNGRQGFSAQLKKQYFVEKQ

The term EC50 denotes the concentration giving half of the maximal effect. As for `CC(C)C[C@H](NC(=O)OCc1ccccc1)C(=O)N[C@@H](Cc1ccccc1)C(=O)N[C@H](/C=C/c1ccno1)CCC(N)=O` [Comparison Compound #1, 5-(3′-(Cbz-L-Leu-L-Phe-L-Gln)-E-Propene)-isoxazole, reference compound], the kinact/KI in data set [1] is 573 M⁻¹ s⁻¹. Moreover, the EC50 in data set [2] (setting [4]) and in data set [2] (setting [5]) was greater than 320000 nM throughout.
Turning to `CCOC(=O)/C=C/[C@H](CCC(N)=O)NC(=O)[C@H](Cc1ccc(C)cc1)NC(=O)[C@@H](NC(=O)c1cc(C)on1)C(C)(C)C` [Compound A-3, Ethyl-3-((5′-Methylisoxazole-3′-carbonyl)-L-α-(t-Butyl-Gly)-L-(4-Me-Phe)-L-Gln)-E-Propenoate], the kinact/KI in data set [1] amounted to 310000 M⁻¹ s⁻¹. In addition, the EC50 in data set [2] (setting [4]) and in data set [2] (setting [5]) was 50 nM each time.
With `CCOC(=O)/C=C/[C@H](CCC(N)=O)NC(=O)[C@H](Cc1ccc(F)cc1)NC(=O)[C@@H](NC(=O)c1cc(C)on1)C(C)(C)C` [Compound A-4, Ethyl-3-((5′-Methylisoxazole-3′-carbonyl)-L-α-(t-Butyl-Gly)-L-(4-F-Phe)-L-Gln)-E-Provenoate], the kinact/KI in data set [1] was 270000 M⁻¹ s⁻¹. Also, the EC50 in data set [2] (setting [4]) and in data set [2] (setting [5]) was 100 nM each time.
With `CCOC(=O)/C=C/[C@H](CCC(N)=O)NC(=O)[C@H](Cc1ccc(F)cc1)NC(=O)[C@@H](NC(=O)c1cc(C)on1)C(C)C` [Compound A-6, Ethyl-3-[(5′-Methylisoxazole-3′-carbonyl)-L-Val-L-(4-F-Phe)-L-Gln]-E-Propenoate], the kinact/KI in data set [1] was 248000 M⁻¹ s⁻¹. Further, the EC50 in data set [2] (setting [4]) and in data set [2] (setting [5]) was 420 nM throughout.
Take `CCOC(=O)/C=C/[C@H](C[C@@H]1CCCNC1=O)NC(=O)[C@H](Cc1ccc(F)cc1)NC(=O)[C@@H](NC(=O)c1cc(C)on1)C(C)C` [Compound A-8, Ethyl-3-[(5′-Methylisoxazole-3′-carbonyl)-L-Val-L-(4-F-Phe)-L-((S)-Piper-Ala)}-E-Propenoate]: the kinact/KI in data set [1] came out at 900000 M⁻¹ s⁻¹.
Consider `CCOC(=O)/C=C/[C@H](CCC(N)=O)NC(=O)[C@H](Cc1ccc(F)cc1)N(C)C(=O)[C@H](Cc1c[nH]cn1)NC(=O)c1cc(C)on1` [Compound A-9, Ethyl-3-{(5′-Methylisoxazole-3′-carbonyl)-L-His-NCH3-L-(4-F-Phe)-L-Gln}-E-Propenoate], for which, in data set [1], the kinact/KI is 66000 M⁻¹ s⁻¹. In addition, the EC50 in data set [2] (setting [4]) and in data set [2] (setting [5]) was 1800 nM each time.
For `CCOC(=O)/C=C/[C@H](CCC(N)=O)NC(=O)[C@H](Cc1ccc(F)cc1)N(C)C(=O)[C@H](Cc1ccc2ccccc2c1)NC(=O)c1cc(C)on1` [Compound A-11, Ethyl-3-{(5′-Methylisoxazole-3′-carbonyl)-L-(2-Naphth)-NCH3-L-(4-F-Phe)-L-Gln}-E-Propenoate], the kinact/KI in data set [1] was 108000 M⁻¹ s⁻¹. Moreover, the EC50 in data set [2] (setting [4]) and in data set [2] (setting [5]) was 30 nM in each case.
`CCOC(=O)/C=C/[C@H](CCC(N)=O)NC(=O)[C@H](Cc1ccc(F)cc1)N(C)C(=O)[C@H](CC(C)C)NC(=O)c1cc(C)on1` [Compound A-12, Ethyl-3-{(5′-Methylisoxazole-3′-carbonyl)-L-Leu-NCH3-L-(4-F-Phe)-L-Gln}-E-Propenoate]: the kinact/KI in data set [1] stood at 59300 M⁻¹ s⁻¹. Also, the half-maximal effective concentration (EC50) in data set [2] (setting [4]) and in data set [2] (setting [5]) was 400 nM in each case.
For `CCOC(=O)/C=C/[C@H](CCC(N)=O)NC(=O)[C@H](Cc1ccc(F)cc1)N(C)C(=O)[C@H](Cc1cccc2ccccc12)NC(=O)c1cc(C)on1` [Compound A-13, Ethyl-3-{(5′-Methylisoxazole-3′-carbonyl)-L-(1-Naphth)-NCH3-L-(4-F-Phe)-L-Gln}-E-Propenoate], the kinact/KI in data set [1] worked out at 95800 M⁻¹ s⁻¹. Moreover, the EC50 in data set [2] (setting [4]) and in data set [2] (setting [5]) was 200 nM each time.
By CC50 is commonly meant the concentration giving 50% cytotoxicity. A higher CC50 goes with lower toxicity to the cells. Turning to `CCOC(=O)/C=C/[C@H](CCC(N)=O)NC(=O)[C@H](Cc1ccccc1)NC(=O)[C@@H](NC(=O)c1cccs1)C(C)(C)C` [Compound A-14], in data set [1], the kinact/KI came to 54500 M⁻¹ s⁻¹. In addition, the half-maximal effective concentration (EC50) in data set [2] (setting [4]) and in data set [2] (setting [5]) was 480 nM in each case. The cytotoxic concentration (CC50) at 2 days in data set [3] was greater than 100000 nM.
Turning to `CCOC(=O)/C=C/[C@H](CCC(N)=O)NC(=O)[C@H](Cc1ccccc1)NC(=O)[C@H](CC(C)C)NC(=O)c1cc(C)[nH]n1` [Compound A-22], in data set [1], the kinact/KI is 2400 M⁻¹ s⁻¹.
Still for that read-out and setting: next, `CCOC(=O)/C=C/[C@H](CCC(N)=O)NC(=O)[C@H](Cc1ccccc1)NC(=O)[C@H](CC(C)C)NC(=O)c1cc(C)cs1` [Compound A-23]: 26000 M⁻¹ s⁻¹.
Take `CCOC(=O)/C=C/[C@H](C[C@@H]1CCNC1=O)NC(=O)[C@H](Cc1ccccc1)NC(=O)[C@@H](NC(=O)OCc1ccccc1)C(C)C` [Compound A-25, Ethyl-3-{Cbz-L-Val-L-Phe-L-((S)-Pyrrol-Ala)}-E-Propenoate]: the kinact/KI in data set [1] amounted to 500000 M⁻¹ s⁻¹. In addition, the EC50 in data set [2] (setting [4]) and in data set [2] (setting [5]) was 30 nM each time.
Regarding `CCOC(=O)/C=C/[C@H](C[C@@H]1CCCNC1=O)NC(=O)[C@H](Cc1ccccc1)NC(=O)[C@H](CC(C)C)NC(=O)OCc1ccccc1` [Compound A-26, Ethyl-3-{Cbz-L-Leu-L-Phe-L-((S)-Piper-Ala)}-E-Provenoate], in data set [1], the kinact/KI was 239000 M⁻¹ s⁻¹. Also, the EC50 in data set [2] (setting [4]) and in data set [2] (setting [5]) was 30 nM in each case.
As for `CCOC(=O)/C=C/[C@H](C[C@H]1CCNC1=O)NC(=O)[C@H](Cc1ccccc1)NC(=O)[C@H](CC(C)C)NC(=O)OCc1ccccc1` [Compound A-27, Ethyl-3-{Cbz-L-Leu-L-Phe-L-((R)-Pyrrol-Ala)}-E-Propenoate], in data set [1], the kinact/KI was found to be 18000 M⁻¹ s⁻¹. For the same compound, the EC50 in data set [2] (setting [4]) and in data set [2] (setting [5]) was 1600 nM each time.
Consider `Cc1cc(C(=O)N[C@H](C(=O)C[C@@H](Cc2ccc(F)cc2)C(=O)N[C@H](/C=C2\CCOC2=O)C[C@@H]2CCNC2=O)C(C)C)no1` [Compound B-3, 2-{(5′-Methylisoxazole-3′-carbonyl)-L-ValΨ(COCH2)-L-(4-F-Phe)-L-((S)-Pyrrol-Ala)}-E-(α-Vinyl-γ-Butyrolactone)], for which the kinact/KI in data set [1] turned out to be 465000 M⁻¹ s⁻¹. Also, the EC50 in data set [2] (setting [4]) and in data set [2] (setting [5]) was 180 nM in each case.
Consider `CCOC(=O)/C=C/[C@H](C[C@@H]1CCCNC1=O)NC(=O)[C@@H](CC(=O)[C@@H](NC(=O)c1cc(C)on1)C(C)C)Cc1ccc(F)cc1` [Compound B-4, Ethyl-3-[(5′-Methylisoxazole-3′-carbonyl)-L-ValΨ(COCH2)-L-(4-F-Phe)-L-((S)-Piper-Ala)}-E-Propenoate], for which, in data set [1], the kinact/KI turned out to be 500000 M⁻¹ s⁻¹. Besides, the EC50 in data set [2] (setting [4]) and in data set [2] (setting [5]) was less than 30 nM throughout.
Take `CCOC(=O)/C=C/[C@H](CCC(N)=O)NC(=O)[C@H](Cc1ccc(F)cc1)OC(=O)[C@@H](NC(=O)c1cc(C)on1)C(C)C` [Compound C-1, Ethyl-3-{(5′-Methylisoxazole-3′-carbonyl)-L-Val-O-L-(4-F-Phe)-L-Gln}-E-Propenoate]: the kinact/KI in data set [1] is 68400 M⁻¹ s⁻¹. Besides, the EC50 in data set [2] (setting [4]) and in data set [2] (setting [5]) was 100 nM in each case.
With “Ethyl-3-((5′-Methylisoxazole-3′-carbonyl)-L-Leu-NCH3-L-Phe-L-Gln)-E-Provenoate [Compound A-10]”, the “Protease Inhibition kobs/[I]” value in data set [1] was 108,000 M^−1sec^−1. Moreover, the EC50 in data set [2] (Table 1, XTT dye reduction, read-out: Cell Protection EC50) is 140 nM; in data set [2] (Table 3, XTT, read-out: EC50), 140 nM.
